The test has as its target T1, bond between rTRX and rMIF (Homo sapiens, UniProt P10599).
T1 construct: His tag; made in house; host or cells: Escherichia coli
T1 sequence (P10599 1-105): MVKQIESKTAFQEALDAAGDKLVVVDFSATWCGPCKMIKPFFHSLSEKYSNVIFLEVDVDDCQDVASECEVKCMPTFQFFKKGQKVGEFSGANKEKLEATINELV
Nature of the test: Screening by molecular interaction analysis (Biacore, SPR) for test substances that strengthen the bond between TRX and MIF. The format is binding. As to conditions: test substance 500 µM mixed with rTRX 5 µM (Prostaglandin 12 also at 5 µM); FIGS. 7 to 11. The protocol: For several test substances, it was confirmed with a molecular interaction analysis whether they strengthened the bond between TRX and MIF or not.
rTRX; (same as the rTRX of Example 5) rMIF; (same as the rMIF of Example 5) BIAcore2000; (CM5 sensor chip)
N-acetylglucosamine Nitrosoglutathione Prostaglandin 12
rMIF was immobilized in a CM5 sensor chip as a ligand. The ligand was adjusted to have the rMIF concentration of less or equal to 200 nM by using running buffer, 10 mM HEPES (pH7.4), 150 mM NaCl, 3 mM EDTA and 0.005% Tween 20.
Then, N-acetylglucosamine, Nitrosoglutathione and Prostaglandin 12 were mixed with rTRX, respectively, to form three types of analytes.
In each analyte, the concentration of rTRX was 5 µM and the concentration of the test substance was 500 µM. For Prostaglandin 12, the analyte having its concentration of 5 µM was also analyzed.

With Prostaglandin 12, the “effect on the bond between rTRX and rMIF” value is “remarkably strengthen the bond between rTRX and rMIF”.
